Consider 5 compounds from patent publication EP1200406B1, “CYCLIC AMIDES AND IMIDES HAVING SELECTIVE ANTAGONIST ACTIVITY AT ALPHA-1D ADRENERGIC RECEPTOR” (RECORDATI INDUSTRIA CHIMICA E FARMACEUTICA S.p.a., priority 1999, dated 2001).

The target of test [1] is T1, human 5-HT1A-serotoninergic receptor (Homo sapiens, UniProt P08908).
T1 construct: expressed in transfected cells; host or cells: HeLa cells (membranes)
T1 sequence (P08908 1-422): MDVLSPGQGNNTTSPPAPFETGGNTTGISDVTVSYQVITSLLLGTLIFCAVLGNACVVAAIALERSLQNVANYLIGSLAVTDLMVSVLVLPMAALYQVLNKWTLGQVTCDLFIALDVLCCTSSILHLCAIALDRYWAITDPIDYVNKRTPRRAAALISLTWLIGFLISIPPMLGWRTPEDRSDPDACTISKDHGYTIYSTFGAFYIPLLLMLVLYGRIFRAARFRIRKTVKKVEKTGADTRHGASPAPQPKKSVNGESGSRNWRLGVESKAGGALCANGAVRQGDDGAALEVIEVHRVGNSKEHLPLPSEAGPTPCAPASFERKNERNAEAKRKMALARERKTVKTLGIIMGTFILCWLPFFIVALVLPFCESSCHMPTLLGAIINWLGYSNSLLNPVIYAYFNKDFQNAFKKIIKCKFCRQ
The experiment in a line: Radioligand binding ([3H]8-OH-DPAT) on membranes of HeLa cells expressing cloned 5-HT1A receptor. To be noted: read-out: Affinity (Ki) 5-HT1A. The protocol: (§1) The determination of affinity for cloned subtypes of human α1 adrenergic receptors was performed in membranes from CHO cells (chinese hamster ovary cells) transfected by electroporation with DNA expressing the genes encoding each α1-adrenoceptor subtype, namely α1a, α1b and α1d.. Cloning and stable expression of the human α1-adrenoceptor gene were performed as previously described (Testa et al., Pharmacol. Comm. 6, 79-86 (1995)). CHO cell membranes were incubated in […] Tris pH 7.4 with 0.2 nM [^3H]prazosin, in a final volume of 1.02 ml for 30 minutes at 25°C, in the absence or presence of competing drugs (1 pM-10 µM). Non-specific binding was determined in the presence of 10 µM phentolamine. Incubation was stopped by addition of ice-cold Tris buffer and rapid filtration through 0.2% polyethyleneimine pretreated Schleicher & Schuell GF52 filters. Genomic clone G-21 coding for the human 5-HT1A-serotoninergic receptor was stably transfected in a human cell line (HeLa) (Fargin et al., J. Biol. Chem. 284, 14848-14852 (1989)). The HeLa cells were grown as monolayers in Dulbecco's modified Eagle's medium (DMEM), supplemented with 10% foetal calf serum and gentamicin (100 µg/ml), 5% CO2, at 37°C. The cells were detached from the growth flask at 95% confluence by a cell scraper and were lysed in ice-cold 5 mM Tris and 5-mM EDTA buffer (pH 7.4). The homogenates were centrifuged at 40000 x g x 20 minutes and the membranes were re-suspended in a small volume of ice-cold 5 mM Tris and 5-mM EDTA buffer (pH 7.4) and immediately frozen and stored at -70°C until use. On the experiment day, the cell membranes were re-suspended in a buffer containing 50 mM Tris (pH 7.4), 2.5 mM MgCl2, 10 µM pargyline (Fargin et al., Nature 335, 358-360 (1988)). […] The incubation was stopped by addition of ice-cold Tris buffer and rapid filtration through 0.2%-polyethyleneimine-pretreated Schleicher & Schuell filters. The inhibition of specific binding of the radioligands by the drugs was analysed to estimate the IC50 value by using the non-linear curve-fitting programme Allfit (De Lean et al., Am. J. Physiol. 235, E97-E102 (1978)). The IC50 value was converted to an affinity constant (Ki) by the equation of Cheng & Prusoff (Biochem. Pharmacol. 22, 3099-3108 (1973)). Data were expressed as mean of Ki.

Test [2] has as its target T2, human recombinant α1a adrenoceptor (Homo sapiens, UniProt P35348).
T2 construct: expressed in transfected cells; host or cells: CHO cells (membranes)
T2 sequence (P35348 1-466): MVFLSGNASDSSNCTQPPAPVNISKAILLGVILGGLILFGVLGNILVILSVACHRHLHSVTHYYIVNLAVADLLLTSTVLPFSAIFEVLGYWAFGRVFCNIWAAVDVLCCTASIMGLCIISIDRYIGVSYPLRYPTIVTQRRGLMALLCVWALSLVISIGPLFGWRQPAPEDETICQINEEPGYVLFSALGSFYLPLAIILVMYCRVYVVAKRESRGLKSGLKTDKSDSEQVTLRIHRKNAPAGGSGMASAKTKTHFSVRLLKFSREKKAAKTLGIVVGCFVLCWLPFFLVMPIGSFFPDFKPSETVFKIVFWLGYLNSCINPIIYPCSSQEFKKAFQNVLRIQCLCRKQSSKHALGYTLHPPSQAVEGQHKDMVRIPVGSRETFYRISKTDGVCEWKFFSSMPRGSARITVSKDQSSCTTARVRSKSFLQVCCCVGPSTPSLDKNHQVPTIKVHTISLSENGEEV
The experiment in a line: Radioligand binding ([3H]prazosin) on membranes of CHO cells expressing cloned α1a adrenoceptor. To be noted: human cloned receptor, CHO cell membranes, 0.2 nM [3H]prazosin; read-out: Affinity (Ki) α1a. The protocol:
as §1, with “Genomic clone G-21 coding for the human 5-HT1A-serotoninergic receptor was stably transfected in a human cell line (HeLa) (Fargin et al., J. Biol. Chem. 284, 14848-14852 (1989)).” left out

Test [3] addresses T3, human recombinant α1b adrenoceptor (Homo sapiens, UniProt P35368).
T3 construct: expressed in transfected cells; host or cells: CHO cells (membranes)
T3 sequence (P35368 1-520): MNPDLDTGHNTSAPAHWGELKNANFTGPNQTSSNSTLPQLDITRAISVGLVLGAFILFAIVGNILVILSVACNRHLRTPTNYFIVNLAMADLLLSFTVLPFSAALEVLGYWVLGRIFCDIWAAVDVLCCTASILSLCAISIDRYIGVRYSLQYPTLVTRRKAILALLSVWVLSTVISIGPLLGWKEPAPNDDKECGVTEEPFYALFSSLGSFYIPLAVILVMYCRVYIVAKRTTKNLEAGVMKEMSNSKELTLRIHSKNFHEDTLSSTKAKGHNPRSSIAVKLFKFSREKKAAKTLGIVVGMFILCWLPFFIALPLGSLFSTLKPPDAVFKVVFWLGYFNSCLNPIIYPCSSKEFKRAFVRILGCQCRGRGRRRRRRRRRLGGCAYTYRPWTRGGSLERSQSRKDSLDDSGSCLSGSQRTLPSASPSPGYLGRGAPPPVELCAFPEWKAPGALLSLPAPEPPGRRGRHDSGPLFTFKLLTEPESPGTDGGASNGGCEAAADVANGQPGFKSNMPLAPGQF
The test is described as follows: Radioligand binding ([3H]prazosin) on membranes of CHO cells expressing cloned α1b adrenoceptor. To be noted: human cloned receptor, CHO cell membranes, 0.2 nM [3H]prazosin; read-out: Affinity (Ki) α1b. The method, then: as §1

Test [4] addresses T4, human recombinant α1d adrenoceptor (Homo sapiens, UniProt P25100).
T4 construct: expressed in transfected cells; host or cells: CHO cells (membranes)
T4 sequence (P25100 1-572): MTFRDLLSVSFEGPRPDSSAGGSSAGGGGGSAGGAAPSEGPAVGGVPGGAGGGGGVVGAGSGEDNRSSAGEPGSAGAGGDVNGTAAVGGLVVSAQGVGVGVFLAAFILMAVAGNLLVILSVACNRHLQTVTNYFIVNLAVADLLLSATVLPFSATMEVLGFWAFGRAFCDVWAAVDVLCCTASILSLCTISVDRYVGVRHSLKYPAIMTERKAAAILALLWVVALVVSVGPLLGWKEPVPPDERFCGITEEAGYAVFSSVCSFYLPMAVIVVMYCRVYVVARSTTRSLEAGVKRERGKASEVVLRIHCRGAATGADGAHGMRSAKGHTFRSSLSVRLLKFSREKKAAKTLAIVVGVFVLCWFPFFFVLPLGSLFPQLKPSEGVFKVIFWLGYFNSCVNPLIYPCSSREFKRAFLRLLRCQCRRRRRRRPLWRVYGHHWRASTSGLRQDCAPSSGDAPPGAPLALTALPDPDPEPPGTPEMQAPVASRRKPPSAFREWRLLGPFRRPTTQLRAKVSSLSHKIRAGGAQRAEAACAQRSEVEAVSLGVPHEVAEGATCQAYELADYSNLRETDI
The test is described as follows: Radioligand binding ([3H]prazosin) on membranes of CHO cells expressing cloned α1d adrenoceptor. To be noted: human cloned receptor, CHO cell membranes, 0.2 nM [3H]prazosin; read-out: Affinity (Ki) α1d. The protocol:
as §1, with “Genomic clone G-21 coding for the human 5-HT1A-serotoninergic receptor was stably transfected in a human cell line (HeLa) (Fargin et al., J. Biol. Chem. 284, 14848-14852 (1989)).” left out

The target of the next test is T5, Rat aorta α1D (Rattus norvegicus, UniProt P23944).
T5 construct: from tissue; host or cells: rat thoracic aorta, helicoidal strips
T5 sequence (P23944 1-561): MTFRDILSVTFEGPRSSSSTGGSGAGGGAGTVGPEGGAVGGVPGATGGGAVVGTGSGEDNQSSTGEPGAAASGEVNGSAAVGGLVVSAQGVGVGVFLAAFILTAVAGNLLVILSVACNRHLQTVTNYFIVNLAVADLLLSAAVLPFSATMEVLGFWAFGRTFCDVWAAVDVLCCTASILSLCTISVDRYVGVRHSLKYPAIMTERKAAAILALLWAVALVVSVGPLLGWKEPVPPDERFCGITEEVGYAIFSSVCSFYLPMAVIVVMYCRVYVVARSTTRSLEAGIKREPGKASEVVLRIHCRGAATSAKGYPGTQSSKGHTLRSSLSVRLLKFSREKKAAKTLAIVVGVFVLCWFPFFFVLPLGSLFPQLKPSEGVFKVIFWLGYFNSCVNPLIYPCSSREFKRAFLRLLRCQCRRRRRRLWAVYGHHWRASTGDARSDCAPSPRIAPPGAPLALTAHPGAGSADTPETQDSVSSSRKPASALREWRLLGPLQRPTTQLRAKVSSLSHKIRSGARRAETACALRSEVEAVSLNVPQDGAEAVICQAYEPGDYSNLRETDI
The test is described as follows: Functional antagonism of noradrenaline-induced contraction, rat aorta strips. To be noted: noradrenaline as agonist, 30 minutes incubation, Schild plot; read-out: Functional affinity pKB, Rat aorta α1D (converted). The test is classed as cell-based, Sprague Dawley rats. The method, then: In vitro assessment of functional antagonism for α1-adrenoceptor subtypes
Thoracic aorta was obtained from Sprague Dawley rats, cut in helicoidal strips and placed in Krebs solution containing desmethylimipramine (0.1 µM), corticosterone (1 µM), propranol (1 µM) and yohimbine (0.1 µM). The strips were mounted for isotonic tension recording in an organ bath containing the above Krebs buffer enriched and aerated constantly with 95% O2 and 5% CO2, maintained at 37°C and loaded with 1.5 g. After an equilibration period, the strips were primed twice with 10 µM noradrenaline, then concentration/response-to-the-agonist curves were constructed before (basal) and after 30 minutes incubation with single antagonist concentrations (response). The Schild-plot parameters were evaluated by linear-regression analysis according to Tallarida and Murray (Manual of Pharmacologic Calculations with Computer Programs, 53-56, Springer-Verlag).

The mark [5] stands for this setting: human cloned receptor, HeLa cell membranes, 1.2 nM [3H]8-OH-DPAT.

Where two headings read alike, the source gives them in different places.

For `Cc1ccc(Cl)c(N2CCN(CCN3C(=O)CC4(CCCC4)CC3=O)CC2)c1` [Example 3, 8-{2-[4-(2-Chloro-5-methylphenyl)-1-pirerazinyl]-ethyl}-8-azaspiro[4.5]decane-7,9-dione], the inhibitory constant (Ki) turned out to be 69.5 nM in test [1] (setting [5]), 126 nM in test [2] and 193 nM in test [3].
`O=C1CCC(=O)N1CCN1CCN(c2cc(Cl)ccc2Cl)CC1` [Example 12, 1-{2-[4-(2,5-Dichlorophenyl)-1-piperazinyl]-ethyl}-pyrrolidine-2,5-dione]: the Ki in test [1] was more than 1000 nM; in test [4], 7.78 nM; in test [3], 86.4 nM.
`O=C1CC2(CCCC2)CCN1CCN1CCN(c2cc(Cl)ccc2Cl)CC1` [Example 19, 8-{2-[4-(2,5-Dichlorophenyl)-1-piperazinyl]-ethyl}-8-azaspiro[4.5]decane-7-one]: the values for the Ki in test [1] (setting [5]) and in test [3] were 17.4 nM and 10.6 nM, respectively. Besides, at Rat aorta α1D, the Kb was 1.29 nM.
Regarding `O=C1CC2(CCCCC2)CCN1CCN1CCN(c2cc(Cl)ccc2Cl)CC1` [Example 25, 3-{2-[4-(2,5-Dichlorophenyl)-1-piperazinyl]-ethyl}-3-azaspiro[5.5]undecane-2-one], the values for the Ki in test [1] and in test [4] were 40.4 nM and 0.66 nM, respectively.
In the case of `O=C1CC2(CCCCCC2)CC(=O)N1CCN1CCN(c2cc(Cl)ccc2Cl)CC1` [Example 26, 3-{2-[4-(2,5-Dichlorophenyl)-1-piperazinyl]-ethyl}-3-azaspiro[5.6]dodecane-2,4-dione], the Ki came to 35.3 nM in test [1] and 0.96 nM in test [4].

The Ki is a measure of affinity in units of concentration, obtained from inhibition or displacement.
